Common to all, as to assay type: cell-based
For assay [1], the target named is T1, IKZF2 (Homo sapiens, UniProt Q96SW2+Q9UKS7). Kind of assay: HEK293 IKZF2 degradation kinetics (HiBiT, timepoints 1-24 h). Also noted: expressed in transfected cells. To be noted: for kinact: HEK293, IKZF2, timepoints 1, 2, 3, 4.5 and 24 hour, read-out: Maximum degradation rate Kinact (converted). The method, then:
The assay technology and principles for evaluating IKZF2 degradation kinetics in HEK293 cells was identical to the HEK293 degradation assay as described above. Additional details are briefly described below.
On Day 1, Cells were grown and induced the same as described above. On Days 2 and 3, compounds for testing were dispensed via ECHO and cells were lifted and plated into compound-spotted assay plates as above. Plates were returned to the 37° C. incubator until addition of Nano-Glo lytic reagent at 1, 2, 3, 4.5, and 24 hour timepoints. At these timepoints, plates were read on Envision reader as above.
All raw data was normalized to DMSO control (final concentration: 0.5%) wells as POC and plotted out as a function of time to generate the degradation rate constant (K) value. The maximum degradation rate (Kinact) was determined by plotting the K value as a function of concentration for each compound tested. Kinact values are shown in Table 25 and the degradation rate plots as well as timecourse of degradation are shown for select compounds in FIG. 1A, FIG. 1B, FIG. 2A and FIG. 2B.
Target sequence in this assay (Q9UKS7 1-500 isoform Q9UKS7-2): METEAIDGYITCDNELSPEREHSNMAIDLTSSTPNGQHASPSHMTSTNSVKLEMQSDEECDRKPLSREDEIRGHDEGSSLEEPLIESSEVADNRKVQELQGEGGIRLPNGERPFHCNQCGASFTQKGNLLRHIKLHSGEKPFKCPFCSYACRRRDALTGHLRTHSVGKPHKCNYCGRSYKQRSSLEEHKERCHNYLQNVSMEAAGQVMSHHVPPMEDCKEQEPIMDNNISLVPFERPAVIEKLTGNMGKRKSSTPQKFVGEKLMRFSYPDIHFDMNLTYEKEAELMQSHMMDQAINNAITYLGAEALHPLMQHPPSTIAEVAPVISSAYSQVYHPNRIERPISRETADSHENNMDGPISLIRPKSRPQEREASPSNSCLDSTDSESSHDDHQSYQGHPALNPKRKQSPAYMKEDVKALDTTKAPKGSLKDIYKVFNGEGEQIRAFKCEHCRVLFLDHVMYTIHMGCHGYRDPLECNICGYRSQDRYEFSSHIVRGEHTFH
Target sequence in this assay (Q96SW2 whole entry): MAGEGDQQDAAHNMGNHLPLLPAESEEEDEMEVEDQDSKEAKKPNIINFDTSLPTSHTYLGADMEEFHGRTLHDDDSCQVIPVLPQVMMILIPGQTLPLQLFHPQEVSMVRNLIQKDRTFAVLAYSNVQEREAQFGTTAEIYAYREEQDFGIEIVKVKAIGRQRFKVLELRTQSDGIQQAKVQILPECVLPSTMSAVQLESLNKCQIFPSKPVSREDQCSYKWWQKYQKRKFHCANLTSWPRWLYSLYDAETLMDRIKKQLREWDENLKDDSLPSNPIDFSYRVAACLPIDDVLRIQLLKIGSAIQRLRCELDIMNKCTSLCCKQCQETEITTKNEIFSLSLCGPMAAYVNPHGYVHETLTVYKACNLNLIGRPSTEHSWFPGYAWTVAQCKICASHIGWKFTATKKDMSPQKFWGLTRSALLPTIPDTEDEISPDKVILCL
Target sequence in this assay (Q16531 whole entry partner): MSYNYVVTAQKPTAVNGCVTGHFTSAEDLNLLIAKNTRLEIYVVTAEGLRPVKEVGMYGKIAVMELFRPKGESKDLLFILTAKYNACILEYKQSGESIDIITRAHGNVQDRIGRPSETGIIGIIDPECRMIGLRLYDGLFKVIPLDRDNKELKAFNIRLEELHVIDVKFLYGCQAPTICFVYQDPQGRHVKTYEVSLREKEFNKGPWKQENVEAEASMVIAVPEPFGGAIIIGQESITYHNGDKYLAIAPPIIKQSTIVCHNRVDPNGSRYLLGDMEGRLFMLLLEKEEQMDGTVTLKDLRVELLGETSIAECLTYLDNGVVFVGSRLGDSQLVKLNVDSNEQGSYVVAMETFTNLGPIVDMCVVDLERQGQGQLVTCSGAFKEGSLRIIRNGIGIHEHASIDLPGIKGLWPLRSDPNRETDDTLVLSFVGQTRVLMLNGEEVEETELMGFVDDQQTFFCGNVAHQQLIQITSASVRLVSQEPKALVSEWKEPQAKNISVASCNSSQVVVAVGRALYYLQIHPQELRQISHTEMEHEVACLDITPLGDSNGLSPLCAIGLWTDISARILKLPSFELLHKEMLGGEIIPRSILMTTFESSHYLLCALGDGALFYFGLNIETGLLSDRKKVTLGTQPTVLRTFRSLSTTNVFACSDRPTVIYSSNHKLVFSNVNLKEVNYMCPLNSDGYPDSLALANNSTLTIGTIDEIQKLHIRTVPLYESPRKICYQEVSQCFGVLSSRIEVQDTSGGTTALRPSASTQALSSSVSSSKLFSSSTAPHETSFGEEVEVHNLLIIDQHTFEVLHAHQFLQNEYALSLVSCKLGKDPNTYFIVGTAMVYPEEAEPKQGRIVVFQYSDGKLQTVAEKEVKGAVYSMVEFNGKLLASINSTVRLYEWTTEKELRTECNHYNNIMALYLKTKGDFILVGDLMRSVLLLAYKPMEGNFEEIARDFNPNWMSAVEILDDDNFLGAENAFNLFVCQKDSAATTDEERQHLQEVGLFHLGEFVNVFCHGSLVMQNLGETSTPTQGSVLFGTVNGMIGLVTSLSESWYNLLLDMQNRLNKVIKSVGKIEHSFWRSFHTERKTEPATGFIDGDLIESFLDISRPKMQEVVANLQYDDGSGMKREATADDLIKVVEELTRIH

Assay [2] concerns the target T1, IKZF2. Put plainly: HEK293 HiBiT in vitro degradation of IKZF2. Also noted: expressed in transfected cells. Particulars: for Dmax: HEK293, HEK293 HiBiT, maximum degradation at the highest concentration tested; for DC50: HEK293 HiBiT, 18-24 hr incubation, normalized to DMSO control, read-out: IKZF2 EC50. The procedure, abridged:
(§1)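 EC50 and Dmax come from Nano-Glo lytic luminescence after 18-24 hr compound treatment at 37° C. Reporter cells were single-copy Flp-In T-REx HEK293 pools carrying HiBiT fused to the C-terminus of IKZF1, IKZF2 or SALL4. Expression was induced overnight beforehand with […] doxycycline.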
Target sequence in this assay (Q9UKS7 1-500 isoform Q9UKS7-2): as the sequence (Q9UKS7 1-500 isoform Q9UKS7-2) above
Target sequence in this assay (Q96SW2 whole entry): as the sequence (Q96SW2 whole entry) above
Target sequence in this assay (Q16531 whole entry partner): as the sequence (Q16531 whole entry partner) above

The next assay concerns the target T2, IKZF1 (Homo sapiens, UniProt Q13422+Q96SW2).
T2 construct: expressed in transfected cells
Kind of assay: HEK293 HiBiT in vitro degradation of IKZF1. Particulars: for Dmax: HEK293, HEK293 HiBiT, maximum degradation at the highest concentration tested; for DC50: HEK293 HiBiT, 18-24 hr incubation, normalized to DMSO control, read-out: IKZF1 EC50. In a few lines:
as §1

Assay [3] has as its target T1, IKZF2. Kind of assay: Human whole blood IKZF2 degradation (flow cytometry, CD4/CD25/Foxp3+ Treg cells). Particulars: 24 hrs incubation, IKZF2 MFI in CD4/CD25/Foxp3+ Treg cells, flow cytometry; for DC50: read-out: IKZF2 EC50. Further details: endogenous in cells. In a few lines:
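Fresh healthy-donor human whole blood stimulated with CD3/CD28 activator and serially diluted compound for 24 hrs at 37° C. IKZF2 MFI in CD4/CD25/Foxp3+ Tregs (IKZF1 MFI in CD4+ T cells) measured by flow cytometry after RBC lysis, fixation, permeabilization. EC50 and Dmax versus DMSO wells.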
Target sequence in this assay (Q9UKS7 whole entry): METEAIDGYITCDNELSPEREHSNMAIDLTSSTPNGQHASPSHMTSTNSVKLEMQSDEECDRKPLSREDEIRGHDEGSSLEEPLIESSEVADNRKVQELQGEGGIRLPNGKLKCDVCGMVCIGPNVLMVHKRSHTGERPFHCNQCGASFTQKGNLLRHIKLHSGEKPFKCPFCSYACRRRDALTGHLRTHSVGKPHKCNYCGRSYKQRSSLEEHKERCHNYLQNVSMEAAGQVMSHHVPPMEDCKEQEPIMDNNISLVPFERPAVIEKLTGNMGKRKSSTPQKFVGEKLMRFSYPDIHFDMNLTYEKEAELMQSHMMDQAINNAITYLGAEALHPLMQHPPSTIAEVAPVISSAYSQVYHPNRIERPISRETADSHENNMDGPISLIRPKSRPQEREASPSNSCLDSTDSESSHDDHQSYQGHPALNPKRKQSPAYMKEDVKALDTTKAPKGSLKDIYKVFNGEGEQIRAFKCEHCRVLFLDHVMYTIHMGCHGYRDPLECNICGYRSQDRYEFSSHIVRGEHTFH
Target sequence in this assay (Q96SW2 whole entry): as the sequence (Q96SW2 whole entry) above
Target sequence in this assay (Q16531 whole entry partner): as the sequence (Q16531 whole entry partner) above

Another assay addresses T3, SALL4 (Homo sapiens, UniProt Q96SW2+Q9UJQ4).
T3 construct: expressed in transfected cells
Kind of assay: HEK293 HiBiT in vitro degradation of SALL4. To be noted: 18-24 hr incubation, normalized to DMSO control, read-out: SALL4 EC50. As to the method: In vitro degradation of IKZF1, IKZF2, and SALL4 was measured using HiBiT protein tagging and detection technology (Promega).
HiBit technology was used to develop the quantitative assays to measure the cellular IKZFs level by tagging an 11 amino acid HiBit peptides […] to the protein of interest. Reporter plasmids were generated by fusing a linker sequence ([…]) followed by the HiBit tag at the C-terminus of IKZF1, IKZF2, and SALL4. The fusion fragments were subsequently cloned into pcDNA5 pcDNA™5/FRT/TO plasmids (Thermo Fisher, cat #V652020) downstream of the tetracycline operator. The resulting plasmids were co-transfected with pOG44 Flp-Recombinase Expression Vector (Thermo Fisher, cat #V600520) into Flp-In™ T-REx HEK293 line (Thermo Fisher, cat #R78077) and a stable cell pool was selected by adding 100 µg/ml of Hygromycin (Thermo Fisher, cat #10687010). The reporter cell enabled Tet-On inducible reporter expression from a single copy of the integrated gene.
On Day 1, Cells were grown to ˜80% confluency in tissue culture medium (DMEM Glutamax (Gibco10569), 10% Tet free FBS (Takara 631106), and PenStrep Glutamin (Gibco 10378)) in tissue culture flasks. Doxycycline was then added to a final concentration of […] to induce reporter expression at 37° C. overnight.
On Day 2, 125 nL of serially-diluted solution of testing compounds were dispensed into 384-well white solid assay plates via ECHO acoustic liquid handler. Cells were lifted by 0.25% Trypsin (Gibco 25200) then pelleted by centrifugation (Beckman Avanti J-E) at 500×g for 5 min. Cell pellets were resuspended in TC medium at the concentration of 3e5/mL and 25 μL of cell suspension were added into each well of compound-spotted plates. The plates were returned to a 37° C. incubator overnight (18-24 hr).
On Day 3, assay plates were removed from the tissue culture incubator and 25 μL of Nano-Glo lytic detection system (Promega, cat #N3030) was added to each well. Plates were incubated at r.t. for 3 min with shaking, and luminescence was read using an Envision reader (Perkin Elmer).
To assess the IKZF1, IKZF2, and SALL4 degrader potential of exemplified compounds of this disclosure and certain Reference Compounds EC50 and Dmax values were determined for the compounds of Examples 1 to 383 and Reference Compounds A-1, B-1, B-2, B-3, B-4, and C-1 in the HiBiT assays. Asterisks (*) indicate examples for which the data shown represents an average of n≥3.

Structures are written as SMILES.

T2 sequence (Q13422 whole entry): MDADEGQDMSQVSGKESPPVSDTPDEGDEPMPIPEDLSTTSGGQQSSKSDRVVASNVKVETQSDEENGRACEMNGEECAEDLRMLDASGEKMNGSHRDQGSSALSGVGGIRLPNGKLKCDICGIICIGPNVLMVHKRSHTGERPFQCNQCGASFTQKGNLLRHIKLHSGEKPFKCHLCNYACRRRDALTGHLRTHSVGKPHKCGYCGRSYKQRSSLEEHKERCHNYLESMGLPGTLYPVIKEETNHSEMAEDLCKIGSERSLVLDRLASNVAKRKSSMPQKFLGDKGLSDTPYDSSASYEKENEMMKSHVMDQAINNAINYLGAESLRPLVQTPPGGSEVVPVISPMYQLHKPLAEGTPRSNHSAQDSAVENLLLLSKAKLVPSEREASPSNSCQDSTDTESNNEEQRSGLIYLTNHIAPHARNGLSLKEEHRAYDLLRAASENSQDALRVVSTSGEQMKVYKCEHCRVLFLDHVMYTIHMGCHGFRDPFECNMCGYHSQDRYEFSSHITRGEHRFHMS
T2 sequence (Q96SW2 whole entry): as the sequence (Q96SW2 whole entry) above
T2 sequence (Q16531 whole entry partner): as the sequence (Q16531 whole entry partner) above
T3 sequence (Q9UJQ4 whole entry): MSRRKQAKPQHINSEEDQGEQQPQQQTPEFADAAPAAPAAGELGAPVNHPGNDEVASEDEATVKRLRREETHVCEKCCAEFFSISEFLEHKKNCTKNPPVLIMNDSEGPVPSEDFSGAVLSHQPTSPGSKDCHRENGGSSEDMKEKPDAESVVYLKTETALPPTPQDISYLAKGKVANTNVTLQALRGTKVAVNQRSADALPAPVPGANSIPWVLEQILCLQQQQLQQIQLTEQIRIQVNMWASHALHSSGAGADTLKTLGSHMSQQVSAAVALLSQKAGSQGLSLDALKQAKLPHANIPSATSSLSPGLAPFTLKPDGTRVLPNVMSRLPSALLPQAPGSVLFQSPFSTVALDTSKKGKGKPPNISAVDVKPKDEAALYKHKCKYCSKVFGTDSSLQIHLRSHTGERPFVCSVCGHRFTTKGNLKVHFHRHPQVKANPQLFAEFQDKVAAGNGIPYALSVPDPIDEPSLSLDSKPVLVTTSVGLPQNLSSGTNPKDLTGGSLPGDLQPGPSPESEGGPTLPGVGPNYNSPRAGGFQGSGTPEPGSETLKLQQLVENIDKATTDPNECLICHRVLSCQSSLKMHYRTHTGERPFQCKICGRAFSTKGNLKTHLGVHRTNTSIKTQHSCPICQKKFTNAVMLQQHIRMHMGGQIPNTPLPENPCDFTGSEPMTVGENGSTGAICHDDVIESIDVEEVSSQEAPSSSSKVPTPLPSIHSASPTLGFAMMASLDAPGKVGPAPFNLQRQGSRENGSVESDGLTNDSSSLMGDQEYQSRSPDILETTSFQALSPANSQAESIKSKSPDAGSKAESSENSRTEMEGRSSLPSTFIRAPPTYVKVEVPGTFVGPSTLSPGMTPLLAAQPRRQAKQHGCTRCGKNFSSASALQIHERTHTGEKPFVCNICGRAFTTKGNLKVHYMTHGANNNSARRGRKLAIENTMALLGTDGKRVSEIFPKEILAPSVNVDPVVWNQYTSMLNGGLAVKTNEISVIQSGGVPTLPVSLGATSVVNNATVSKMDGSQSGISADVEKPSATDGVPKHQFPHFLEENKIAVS
T3 sequence (Q96SW2 whole entry): as the sequence (Q96SW2 whole entry) above
T3 sequence (Q16531 whole entry partner): as the sequence (Q16531 whole entry partner) above

As for `O=C1CCC(N2Cc3cc(O[C@H]4CCCC[C@@H]4NCc4ccccc4)ccc3C2=O)C(=O)N1` (some centres unmarked) [Example B-3], on IKZF2 [1], the inactivation rate constant (kinact) was 5.56e-05 s⁻¹. At IKZF2 [2], the maximal degradation (Dmax) was determined as 84%.

Turning to `O=C1CCC(N2Cc3c(ccc(C[C@H]4OCCC[C@@H]4NC4CCC(C(F)(F)F)CC4)c3F)C2=O)C(=O)N1` (single isomer, unassigned) [Example 257], the results for the Dmax at IKZF1, on IKZF2 [2] and at IKZF2 [3] were 34%, 99% and 93%, respectively. The DC50 at IKZF1 was 69 nM; at IKZF2 [2], 3 nM; at IKZF2 [3] it was 5 nM. Also, the kinact at IKZF2 [1] was 0.000133 s⁻¹.

Consider `O=C1CC[C@@H](N2Cc3c(ccc(C[C@H]4OCCC[C@@H]4N[C@H]4CC[C@H](F)CC4)c3F)C2=O)C(=O)N1` (single isomer, unassigned) [Example 373], for which the DC50 at IKZF1 is over 1000 nM. For the same compound, on IKZF2 [1], the kinact was 0.000111 s⁻¹. In addition, on IKZF2 [2], the Dmax amounted to 94% and the DC50 turned out to be 7 nM.

Take `O=C1CCC(N2Cc3c(ccc(C[C@H]4OCCC[C@@H]4NC4CCCCC4)c3F)C2=O)C(=O)N1` (some centres unmarked) [Example 181]: the DC50 at IKZF1 was over 1000 nM; at IKZF2 [2] it was 6 nM; on IKZF2 [3], 8 nM. The kinact on IKZF2 [1] was 0.000106 s⁻¹. Moreover, the Dmax at IKZF2 [2] was determined as 96%; on IKZF2 [3], 99%.

As for `O=C1CCC(N2Cc3cc(C[C@H]4CCCC[C@@H]4NCc4ccccc4)ccc3C2=O)C(=O)N1` (stereo partly drawn) [Example 2, 3-(5-(((1R,2S)-2-(benzylamino)cyclohexyl)methyl)-1-oxoisoindolin-2-yl)piperidine-2,6-dione], the DC50 at IKZF1 was over 10000 nM. Besides, the “speed of IKZF2 degradation compared with Reference Compounds A-1, B-3, B-4, C-1” value at IKZF2 [1] (HEK293) is “faster degradation of IKZF2”. The kinact on IKZF2 [1] is 0.000147 s⁻¹. Moreover, on IKZF2 [2], the Dmax was 88% and the DC50 was 18 nM.

`O=C1CCC(N2Cc3c(ccc(C[C@H]4OCCC[C@@H]4N[C@H]4CC[C@@H](F)CC4)c3F)C2=O)C(=O)N1` (single isomer, unassigned) [Example 290]: the figures for the greatest degradation seen (Dmax) on IKZF1, at IKZF2 [2] and at IKZF2 [3] were 27%, 98% and 96%, respectively. In addition, the DC50 is 138 nM on IKZF1, 4 nM at IKZF2 [2], 6 nM at IKZF2 [3] and over 10000 nM on SALL4.

Regarding `O=C1CCC(N2Cc3c(ccc(C[C@H]4CCCC[C@@H]4NC4CCCC4)c3F)C2=O)C(=O)N1` (stereo partly drawn) [Example 87, 3-(5-(((1R,2S)-2-(cyclopentylamino)cyclohexyl)methyl)-4-fluoro-1-oxoisoindolin-2-yl)piperidine-2,6-dione], the Dmax came out at 39% on IKZF1, 98% on IKZF2 [2] and 95% at IKZF2 [3]. Also, the DC50 was 62 nM at IKZF1, 2 nM on IKZF2 [2] and 3 nM at IKZF2 [3]. Also, the kinact at IKZF2 [1] was 0.000139 s⁻¹.

Consider `O=C1CCC(N2Cc3c(ccc(C[C@H]4CCCC[C@@H]4NC4CCOCC4)c3F)C2=O)C(=O)N1` (some centres unmarked) [Example 116], for which the greatest degradation seen (Dmax) was determined as 34% at IKZF1, 98% on IKZF2 [2] and 89% at IKZF2 [3]. Besides, the DC50 at IKZF1 turned out to be 44 nM; on IKZF2 [2], 2 nM; on IKZF2 [3], 1 nM. For the same compound, the inactivation rate constant (kinact) at IKZF2 [1] was 0.00015 s⁻¹.

Take `O=C1CCC(N2Cc3cc(N[C@H]4CCCC[C@@H]4NCc4ccccc4)ccc3C2=O)C(=O)N1` (some centres unmarked) [Example C-1]: the kinact on IKZF2 [1] is 8.33e-06 s⁻¹. At IKZF2 [2], the greatest degradation seen (Dmax) was 64%.

Take `O=C1CCC(N2Cc3cc(C[C@H]4CCCC[C@@H]4NC4CCCCC4)ccc3C2=O)C(=O)N1` (stereo partly drawn) [Example 53, 3-(5-(((1R,2S)-2-(cyclohexylamino)cyclohexyl)methyl)-1-oxoisoindolin-2-yl)piperidine-2,6-dione]: the DC50 is over 1000 nM on IKZF1, 3 nM at IKZF2 [2] and 4 nM at IKZF2 [3]. In addition, the kinact at IKZF2 [1] was 0.000147 s⁻¹. For the same compound, the Dmax at IKZF2 [2] and at IKZF2 [3] was 96% in each case.
